“Also recorded” adds a separate entry of the source. Like-named read-outs stand apart in the source and are kept apart here. Ends that are not written are not given here.
Tests used:
[1] = test system: SARS-CoV-2 pseudovirus; settings: for inhibition rate on pseudotyped SARS-CoV-2 infection: 3.2 µM
[2] = target: T1, NRP1-BD (the b1 domain of NRP1) (Homo sapiens, UniProt O14786); assay: Microscale thermophoresis (MST) binding to NRP1-BD; settings: mean ± SD (n = 3)
T1 construct: NRP1-BD (the b1 domain of NRP1); purchased Abcam (Cambridge, MA, USA)
T1 sequence (O14786 275-424 limits assumed): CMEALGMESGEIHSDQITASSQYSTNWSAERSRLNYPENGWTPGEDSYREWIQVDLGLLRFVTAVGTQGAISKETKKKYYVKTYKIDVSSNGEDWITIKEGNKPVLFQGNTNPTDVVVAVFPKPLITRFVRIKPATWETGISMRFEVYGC

[3] = target: SARS-CoV-2 S-RBD (Severe acute respiratory syndrome coronavirus 2, UniProt P0DTC2); assay: biochemical; format: binding
[4] = read-out: EC50 against pseudotyped SARS-CoV-2 infection

| Compound | EC50 ([1]; pseudovirus, 48 h) [nM] | Kd [3] [nM] | further results |
| --- | --- | --- | --- |
| NC(N)=NCCC[C@H](NC(=O)c1sccc1NS(=O)(=O)c1cccc2nsnc12)C(=O)O [EG00229] | – | – | inhibition rate on pseudotyped SARS-CoV-2 infection [1]: 15%; EC50 [1, 4]: > 20000 nM; Kd ([2]; value in μM): 4.9 ± 0.7 µM; S-RBD Kd [3]: no binding; also recorded: without binding |
| C[C@@]1(C(=O)O)CC[C@]2(C)CC[C@]3(C)C4=CC(=O)c5c(cc(O)c(O)c5C=O)[C@]4(C)CC[C@@]3(C)[C@@H]2C1 [T-96, demethylzeylasteral] | – | – | inhibition rate on pseudotyped SARS-CoV-2 infection [1]: about 40%; EC50 [1, 4]: 5420 nM; NRP1-BD Kd [2]: no binding; also recorded: without binding; Kd ([3]; read-out: S-RBD Kd): 998.6 ± 8.4 nM |
| Ac-EARTFLDKYNHEAEDLYYQSSLASWGSPRRAR [RN-4] | 390 ± 90 | 7.4 ± 0.5 | – |
| Ac-EKSTLKDRFNHEAQDLKYQDSLASYRGKRPPR [RN-2] | 2370 ± 420 | 65.3 ± 2.2 | – |
| Ac-ETQVLLDKLNHEAEDLKYQSALASHRVRRPPR [RN-5] | 3720 ± 890 | 207 ± 4.5 | – |
| Ac-QNKVYIDKYNHEAQDLFYQSALKAHRGNRRAR [RN-1] | 1980 ± 370 | 19.9 ± 1.4 | – |
| Ac-QRNIYLDRHNHEAEDLKYQTALASFRPAKPAR [RN-3] | 2870 ± 180 | 95.3 ± 2.9 | – |

Reference: PMC10193894 (Journal of Enzyme Inhibition and Medicinal Chemistry, 2023)
